No end group written: not given here.
Key:
[1] = test system: pharmacologically relevant receptors; experiment: Cellular functional assays on pharmacologically relevant receptors; type: cell-based; conditions: data not shown
[2] = test system: mouse vein graft model; conditions: Muto et al. 2012; cited from earlier work
[3] = test system: primary cardiac fibroblasts; experiment: Caspase 3/7 activity in primary cardiac fibroblasts challenged with 1% hypoxia; type: cell-based, rat; conditions: 100 μM, 16 and 32 hours of hypoxia
Experimental: H9C2 is a myoblast cell line derived from rat myocardium obtained from ATCC® (CRL-1446, ATCC, Manassas, Va.) and cultured according to the recommended protocols. Briefly, cells were maintained at 37° C. with 5% CO2 in DMEM supplemented with 10% fetal bovine serum and antibiotics (100 U/ml penicillin, […] streptomycin) and split at a ratio of 1:4 using 0.05% trypsin every 36 hours. […]
(§1) Cells were rinsed in PMS and grown in DMEM (cat. #11966-025, Gibco) for 2 hours prior to initiating hypoxia (simulated ischemia). […] Three different time points were adopted for each of the three cell lines according to the severity of cell death under hypoxia determined by LDH release: for H9C2 cell line: 8 hr; 16 hr; 24 hr; for HL-1 cell line: 4 hr; 8 hr; 12 hr; for cardiac fibroblast cell line: 16 hr; 32 hr; 48 hr.
(§2) Cell death was first determined using an LDH release assay (cat. #630117, Clontech), according to the manufacturer's instructions. […] Caspase 3/7 activity was next determined using a commercial Caspase 3/7 activity kit (Cat. #G8091, Promega, Madison, Wis. 53711) in a 384 well plate (Cat. #781903, Greiner bio-one) according to the manufacturer's instructions. […] The resulting cell lysates (25 μl, with 0.6 ug total protein) and Caspase-Glo 3/7 Reagent were added to each well in a 1:1 ratio and the luminescence was read (CLARIOstar, BMG LABTECH GmbH). […]

[4] = test system: HL1 cells; experiment: LDH release assay in HL1 cells (1% hypoxia or normoxia); type: cell-based, mouse; conditions: for LDH release: 1% hypoxia
Experimental: H9C2 is a myoblast cell line derived from rat myocardium obtained from ATCC® (CRL-1446, ATCC, Manassas, Va.) and cultured according to the recommended protocols. Briefly, cells were maintained at 37° C. with 5% CO2 in DMEM supplemented with 10% fetal bovine serum and antibiotics (100 U/ml penicillin, […] streptomycin) and split at a ratio of 1:4 using 0.05% trypsin every 36 hours. HL-1 cells were obtained from Dr. William Claycomb and cultured according to the published protocols [Claycomb W C, Lanson N A, Jr., Stallworth B S, Egeland D B, Delcarpio J B, Bahinski A, et al. HL-1 cells: a cardiac muscle cell line that contracts and retains phenotypic characteristics of the adult cardiomyocyte. Proc. Natl Acad. Sci. USA. 1998; 95:2979-84; White S M, Constantin P E, Claycomb W C. Cardiac physiology at the cellular level: use of cultured HL-1 cardiomyocytes for studies of cardiac muscle cell structure and function. Am. J. Physiol. Heart Circul. Physiol. 2004; 286:H823-9]. Briefly, cells were cultured in Claycomb medium (JRH Biosciences, USA) supplemented with 10% fetal bovine serum (JRH Biosciences), 2 mM L-glutamine (Gibco, Grand Island, N.Y.), 100 μM norepinephrine (Sigma, USA), 100 U/mL penicillin, and 100 μg/mL streptomycin (Gibco) in flasks precoated with fibronectin and gelatin (Sigma), then incubated at 37° C. in 5% CO2. Cells were split at a ratio of 1:4 using 0.05% trypsin every 48 hours. Primary cardiac fibroblasts were obtained from 2-4-day-old Sprague Dawley rats, according to previously described protocols (cat. #L K003300, Worthington Biochemical Corp., Lakewood, N.J.) [Toraason M, Luken M E, Breitenstein M, Krueger J A, Biagini R E. Comparative toxicity of allylamine and acrolein in cultured myocytes and fibroblasts from neonatal rat heart. Toxicology. […]
as §1, §2

[5] = test system: C57BL/6 mice; experiment: Histological analysis of fibrosis (Masson's trichrome, Aperio) of hearts 14 days post-AMI; type: in vivo, mouse
Experimental: Mice were euthanized by isoflurane and cervical dislocation at day 14, fixed in fresh 4% paraformaldehyde for 24 hours, paraffin embedded, processed, and stained with standard hematoxylin and eosin (H&E) and Masson's trichrome (MT). Starting at the ligation with fully faced tissue, 14-15 levels were cut on each block at 50 μm (one slide for H&E, one for MT, and 3 unstained; 50 μm skipped and then repeated). […] The area of fibrosis was analyzed in 3-4 blindly chosen hearts, each heart at 14-15 levels (point of ligation to apex), 3 sections at each level. Analysis of collagen was performed blinded to treatment on these 42-45 sections per heart. Slides were scanned using an Aperio Scanscope (Aperio Technologies, Vista, Calif.) and analyzed using Aperio Imagescope. The Algorithm Positive Pixel Count v9 was used to measure the Masson's trichrome staining of collagen (representing both fibrosis and collagen in extracellular matrix), hue value (0.66) and hue width (0.1) were used analyzed the tissue outlined using the pen tool. Each section was analyzed and exported. The N positive/N total value (representing the % collagen of the entire section) was used to determine a weighted average for each slide.
Hearts were obtained from AMI mice and histologically analyzed for fibrosis in Masson's trichrome stained sections in a systemic manner (FIG. 2A).

Sequence: YARAAARQARAKALARQLGVAA [MMI-0100]
- effect on pharmacologically relevant receptors in cellular functional assays [1]: no substantial effect
- inflammation and fibrosis in intimal hyperplasia [2]: inhibits inflammation and fibrosis
- caspase 3/7 activity [3]: significantly enhanced
- LDH release ([4]; 100 μM only, 8 hours): enhanced
- LDH release in normoxic conditions ([4]; 100 μM, normoxia (FIG. 11B)): unexpectedly inhibited
- LDH release ([4]; 20 and 100 μM, 4 hours): significantly enhanced
- LDH release in normoxic conditions ([4]; absence of hypoxia, 4 hours): did not enhance LDH release
- histology at the site of infarction (myocyte sparing within scar) ([5]; AMI mice treated with MMI-0100, AMI alone generally all fibrotic): islands of viable myocytes
- fibrosis distant to the site of ischemia (histological sections) ([5]; AMI mice treated with MMI-0100 vs AMI): not found to the same extent
- less fibrosis than untreated AMI mice ([5]; AMI mice, 50 μg/kg/day from 30 minutes post-AMI, day 14): 50%
- fibrosis, area staining blue (Masson's trichrome collagen) ([5]; AMI mice, 50 μg/kg/day from 30 minutes post-AMI, day 14, untreated AMI ~21%): ~11%

Source: patent US10336788B2, “Inhibition of cardiac fibrosis in myocardial infarction” (Moerae Matrix, Inc., priority 2014, dated 2019)
